Assay [1] deals with Calcium/calmodulin-dependent protein kinase type II subunit delta (Homo sapiens, UniProt Q13557).
Assay [2] concerns the target Epithelial discoidin domain-containing receptor 1 (Homo sapiens, UniProt Q08345).
Assay [3] deals with T1, Phenylalanine--tRNA ligase beta subunit (Homo sapiens, UniProt Q9NSD9).
T1 sequence (Q9NSD9 whole entry): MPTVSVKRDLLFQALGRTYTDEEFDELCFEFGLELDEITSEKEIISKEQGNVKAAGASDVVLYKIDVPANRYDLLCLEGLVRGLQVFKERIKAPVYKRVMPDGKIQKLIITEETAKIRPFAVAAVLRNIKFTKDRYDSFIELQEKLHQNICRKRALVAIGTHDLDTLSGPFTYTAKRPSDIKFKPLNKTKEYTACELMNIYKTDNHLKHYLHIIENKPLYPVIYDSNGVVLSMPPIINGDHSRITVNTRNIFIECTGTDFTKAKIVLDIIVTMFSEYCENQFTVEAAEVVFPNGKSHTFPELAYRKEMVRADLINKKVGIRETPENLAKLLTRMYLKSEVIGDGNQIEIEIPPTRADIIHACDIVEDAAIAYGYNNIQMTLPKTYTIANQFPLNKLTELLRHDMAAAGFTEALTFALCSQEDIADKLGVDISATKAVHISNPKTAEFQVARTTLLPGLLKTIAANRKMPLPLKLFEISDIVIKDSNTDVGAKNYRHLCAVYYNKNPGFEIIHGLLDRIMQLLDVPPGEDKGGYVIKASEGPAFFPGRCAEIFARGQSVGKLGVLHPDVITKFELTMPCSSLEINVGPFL

In another assay the target is Activated CDC42 kinase 1 (Homo sapiens, UniProt Q07912).
The target of another assay is Wee1-like protein kinase (Homo sapiens, UniProt P30291).
For assay [4], the target named is Cyclin-dependent kinase 4 (Homo sapiens, UniProt P11802).
For assay [5], the target named is T2, Acyl-CoA dehydrogenase family member 10 (Homo sapiens, UniProt Q6JQN1).
T2 sequence (Q6JQN1 whole entry): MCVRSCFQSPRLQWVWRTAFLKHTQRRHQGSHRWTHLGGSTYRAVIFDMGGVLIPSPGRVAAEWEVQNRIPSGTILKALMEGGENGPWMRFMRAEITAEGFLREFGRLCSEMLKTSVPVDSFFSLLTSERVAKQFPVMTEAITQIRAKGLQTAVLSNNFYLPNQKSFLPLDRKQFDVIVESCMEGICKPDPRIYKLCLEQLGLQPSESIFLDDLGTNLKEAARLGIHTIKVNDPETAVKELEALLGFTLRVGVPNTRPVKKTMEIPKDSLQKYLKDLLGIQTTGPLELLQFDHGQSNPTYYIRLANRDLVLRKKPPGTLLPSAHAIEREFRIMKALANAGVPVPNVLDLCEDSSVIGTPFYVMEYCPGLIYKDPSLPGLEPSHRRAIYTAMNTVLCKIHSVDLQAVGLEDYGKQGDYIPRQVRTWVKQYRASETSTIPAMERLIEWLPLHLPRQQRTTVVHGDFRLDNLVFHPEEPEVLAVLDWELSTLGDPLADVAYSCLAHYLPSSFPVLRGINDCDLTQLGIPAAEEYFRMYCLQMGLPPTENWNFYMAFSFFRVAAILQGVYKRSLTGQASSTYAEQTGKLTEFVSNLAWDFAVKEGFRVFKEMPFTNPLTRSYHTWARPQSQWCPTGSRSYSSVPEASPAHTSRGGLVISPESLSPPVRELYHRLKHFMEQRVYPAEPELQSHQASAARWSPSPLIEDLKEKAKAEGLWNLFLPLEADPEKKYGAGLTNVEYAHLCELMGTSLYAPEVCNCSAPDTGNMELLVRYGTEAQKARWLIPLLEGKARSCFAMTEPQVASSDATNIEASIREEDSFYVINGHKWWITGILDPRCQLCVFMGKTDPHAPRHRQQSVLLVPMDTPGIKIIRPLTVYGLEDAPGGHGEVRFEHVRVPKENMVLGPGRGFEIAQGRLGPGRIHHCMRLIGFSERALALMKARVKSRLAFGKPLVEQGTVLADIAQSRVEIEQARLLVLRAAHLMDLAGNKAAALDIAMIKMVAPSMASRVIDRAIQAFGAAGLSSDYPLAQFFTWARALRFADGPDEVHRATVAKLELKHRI

In assay [6] the target is Tyrosine-protein kinase Yes (Homo sapiens, UniProt P07947).
For assay [7], the target named is T3, Mitogen-activated protein kinase kinase kinase kinase 3 (Homo sapiens, UniProt Q8IVH8).
T3 sequence (Q8IVH8 whole entry): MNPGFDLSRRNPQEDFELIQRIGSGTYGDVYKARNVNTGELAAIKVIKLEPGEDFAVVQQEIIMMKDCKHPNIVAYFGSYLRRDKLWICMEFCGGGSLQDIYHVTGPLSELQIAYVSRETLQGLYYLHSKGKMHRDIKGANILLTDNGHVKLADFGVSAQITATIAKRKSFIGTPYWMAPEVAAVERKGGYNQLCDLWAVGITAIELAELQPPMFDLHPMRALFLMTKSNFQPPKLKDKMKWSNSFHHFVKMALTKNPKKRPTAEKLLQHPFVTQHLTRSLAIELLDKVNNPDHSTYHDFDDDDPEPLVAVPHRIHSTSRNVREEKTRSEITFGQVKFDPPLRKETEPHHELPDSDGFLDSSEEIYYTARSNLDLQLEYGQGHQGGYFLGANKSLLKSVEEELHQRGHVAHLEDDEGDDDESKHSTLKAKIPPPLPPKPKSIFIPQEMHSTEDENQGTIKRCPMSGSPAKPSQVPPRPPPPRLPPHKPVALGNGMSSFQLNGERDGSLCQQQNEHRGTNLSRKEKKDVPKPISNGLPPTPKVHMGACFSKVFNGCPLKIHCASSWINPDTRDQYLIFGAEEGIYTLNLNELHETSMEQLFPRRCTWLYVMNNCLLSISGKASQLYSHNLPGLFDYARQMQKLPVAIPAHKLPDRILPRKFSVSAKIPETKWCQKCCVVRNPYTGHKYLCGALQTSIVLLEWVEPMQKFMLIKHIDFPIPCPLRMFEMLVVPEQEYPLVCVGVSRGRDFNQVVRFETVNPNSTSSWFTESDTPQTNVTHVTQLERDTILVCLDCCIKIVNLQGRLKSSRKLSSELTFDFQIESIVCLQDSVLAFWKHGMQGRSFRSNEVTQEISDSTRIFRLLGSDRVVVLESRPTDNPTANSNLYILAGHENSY

The source made the active and inactive calls. For most assays here, no stated cut-off is given here; in the data, actives have a measured Kd and inactives only a lower limit.

Chain of Calcium/calmodulin-dependent protein kinase type II subunit delta (Q13557 whole entry, the tested form may be a part): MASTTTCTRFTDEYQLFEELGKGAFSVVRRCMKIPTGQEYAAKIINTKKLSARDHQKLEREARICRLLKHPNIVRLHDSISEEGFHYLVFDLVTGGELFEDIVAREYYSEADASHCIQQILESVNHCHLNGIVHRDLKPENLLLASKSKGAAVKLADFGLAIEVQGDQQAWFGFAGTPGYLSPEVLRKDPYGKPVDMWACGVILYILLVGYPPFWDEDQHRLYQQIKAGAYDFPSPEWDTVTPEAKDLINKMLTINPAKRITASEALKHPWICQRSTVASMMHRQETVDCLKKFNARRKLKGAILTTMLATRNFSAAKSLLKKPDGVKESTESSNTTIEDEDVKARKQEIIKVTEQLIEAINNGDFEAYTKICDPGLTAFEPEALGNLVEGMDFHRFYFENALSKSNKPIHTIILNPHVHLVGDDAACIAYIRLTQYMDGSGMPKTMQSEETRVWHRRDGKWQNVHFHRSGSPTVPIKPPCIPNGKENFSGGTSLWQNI
Chain of Activated CDC42 kinase 1 (Q07912 whole entry): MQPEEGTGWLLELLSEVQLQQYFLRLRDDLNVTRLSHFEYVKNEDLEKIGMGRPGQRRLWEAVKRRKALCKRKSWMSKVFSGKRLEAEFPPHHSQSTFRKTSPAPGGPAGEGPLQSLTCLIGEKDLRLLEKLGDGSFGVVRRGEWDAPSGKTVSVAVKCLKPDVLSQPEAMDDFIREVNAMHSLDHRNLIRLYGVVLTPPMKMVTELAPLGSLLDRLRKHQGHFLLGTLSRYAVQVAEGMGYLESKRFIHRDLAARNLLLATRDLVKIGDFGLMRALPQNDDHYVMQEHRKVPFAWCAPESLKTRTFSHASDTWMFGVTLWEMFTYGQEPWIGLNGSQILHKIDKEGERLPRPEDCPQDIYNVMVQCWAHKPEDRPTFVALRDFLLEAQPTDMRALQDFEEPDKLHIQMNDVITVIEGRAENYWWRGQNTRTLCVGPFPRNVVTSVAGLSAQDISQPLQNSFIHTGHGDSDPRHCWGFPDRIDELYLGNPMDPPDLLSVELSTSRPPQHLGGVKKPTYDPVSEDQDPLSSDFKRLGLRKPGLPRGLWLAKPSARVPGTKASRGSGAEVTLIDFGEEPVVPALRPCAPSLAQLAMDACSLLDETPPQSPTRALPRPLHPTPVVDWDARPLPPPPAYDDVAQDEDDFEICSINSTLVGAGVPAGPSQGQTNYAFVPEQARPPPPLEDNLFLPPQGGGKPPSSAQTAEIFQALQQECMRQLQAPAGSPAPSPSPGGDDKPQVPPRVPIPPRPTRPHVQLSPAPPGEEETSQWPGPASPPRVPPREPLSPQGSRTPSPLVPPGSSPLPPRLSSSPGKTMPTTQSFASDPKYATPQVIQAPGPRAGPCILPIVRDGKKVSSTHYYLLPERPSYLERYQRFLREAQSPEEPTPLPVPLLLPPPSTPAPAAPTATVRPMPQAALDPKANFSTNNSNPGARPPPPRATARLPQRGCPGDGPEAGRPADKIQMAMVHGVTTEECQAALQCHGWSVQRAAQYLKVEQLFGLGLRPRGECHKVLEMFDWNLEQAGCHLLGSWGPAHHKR
Chain of Epithelial discoidin domain-containing receptor 1 (Q08345 whole entry, the tested form may be a part): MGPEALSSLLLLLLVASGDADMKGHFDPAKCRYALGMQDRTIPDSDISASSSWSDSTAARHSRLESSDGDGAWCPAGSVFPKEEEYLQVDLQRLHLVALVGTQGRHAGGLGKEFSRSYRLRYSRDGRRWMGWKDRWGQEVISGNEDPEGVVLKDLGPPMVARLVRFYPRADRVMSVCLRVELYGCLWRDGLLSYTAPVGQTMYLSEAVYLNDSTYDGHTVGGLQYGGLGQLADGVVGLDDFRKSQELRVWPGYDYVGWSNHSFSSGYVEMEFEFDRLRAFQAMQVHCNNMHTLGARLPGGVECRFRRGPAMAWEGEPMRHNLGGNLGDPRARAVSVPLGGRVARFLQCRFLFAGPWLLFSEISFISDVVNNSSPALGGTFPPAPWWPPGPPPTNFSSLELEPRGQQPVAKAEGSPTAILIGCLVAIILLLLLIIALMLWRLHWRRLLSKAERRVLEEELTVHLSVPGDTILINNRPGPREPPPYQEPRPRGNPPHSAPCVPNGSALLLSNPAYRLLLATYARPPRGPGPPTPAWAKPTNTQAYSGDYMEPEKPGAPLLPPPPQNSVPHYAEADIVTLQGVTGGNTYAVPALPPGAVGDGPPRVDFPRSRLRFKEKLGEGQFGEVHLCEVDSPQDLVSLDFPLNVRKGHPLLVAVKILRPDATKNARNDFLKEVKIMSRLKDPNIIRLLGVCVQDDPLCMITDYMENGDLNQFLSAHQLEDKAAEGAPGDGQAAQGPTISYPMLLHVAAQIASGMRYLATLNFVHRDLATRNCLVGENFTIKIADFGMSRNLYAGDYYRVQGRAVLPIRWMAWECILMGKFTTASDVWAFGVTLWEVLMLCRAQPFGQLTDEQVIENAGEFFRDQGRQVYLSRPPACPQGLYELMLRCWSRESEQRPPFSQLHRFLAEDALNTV
Chain of Wee1-like protein kinase (P30291 whole entry): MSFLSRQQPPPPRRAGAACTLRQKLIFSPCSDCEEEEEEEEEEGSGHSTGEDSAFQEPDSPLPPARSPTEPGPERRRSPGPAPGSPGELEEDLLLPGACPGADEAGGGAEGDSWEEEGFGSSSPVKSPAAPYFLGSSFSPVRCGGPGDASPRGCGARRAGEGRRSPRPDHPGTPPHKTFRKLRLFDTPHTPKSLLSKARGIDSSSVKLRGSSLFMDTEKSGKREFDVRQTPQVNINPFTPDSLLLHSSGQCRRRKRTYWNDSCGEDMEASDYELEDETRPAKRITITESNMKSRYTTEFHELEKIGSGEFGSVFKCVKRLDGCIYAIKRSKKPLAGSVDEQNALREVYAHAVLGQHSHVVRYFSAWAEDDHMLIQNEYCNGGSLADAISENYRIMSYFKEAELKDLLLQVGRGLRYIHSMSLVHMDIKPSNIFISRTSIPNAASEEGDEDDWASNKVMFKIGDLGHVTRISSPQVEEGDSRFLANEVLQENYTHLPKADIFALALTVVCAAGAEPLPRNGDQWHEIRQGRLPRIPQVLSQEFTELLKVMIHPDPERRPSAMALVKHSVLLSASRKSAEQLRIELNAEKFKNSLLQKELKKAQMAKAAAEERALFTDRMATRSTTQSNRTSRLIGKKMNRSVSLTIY
Chain of Tyrosine-protein kinase Yes (P07947 whole entry): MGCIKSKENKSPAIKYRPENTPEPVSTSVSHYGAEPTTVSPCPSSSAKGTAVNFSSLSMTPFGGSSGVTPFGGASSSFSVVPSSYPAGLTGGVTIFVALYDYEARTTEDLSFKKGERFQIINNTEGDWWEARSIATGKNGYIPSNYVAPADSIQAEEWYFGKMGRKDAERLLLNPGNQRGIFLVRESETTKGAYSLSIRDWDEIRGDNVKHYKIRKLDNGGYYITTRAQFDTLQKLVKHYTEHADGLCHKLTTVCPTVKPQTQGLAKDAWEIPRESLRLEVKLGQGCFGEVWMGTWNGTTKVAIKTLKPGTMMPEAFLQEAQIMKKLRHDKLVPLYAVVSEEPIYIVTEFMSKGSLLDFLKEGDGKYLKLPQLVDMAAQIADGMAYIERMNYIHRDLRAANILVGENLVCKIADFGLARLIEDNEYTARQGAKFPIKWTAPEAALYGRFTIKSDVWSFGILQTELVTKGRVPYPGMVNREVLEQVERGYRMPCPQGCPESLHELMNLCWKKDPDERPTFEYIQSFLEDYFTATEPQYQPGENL
Chain of Cyclin-dependent kinase 4 (P11802 whole entry): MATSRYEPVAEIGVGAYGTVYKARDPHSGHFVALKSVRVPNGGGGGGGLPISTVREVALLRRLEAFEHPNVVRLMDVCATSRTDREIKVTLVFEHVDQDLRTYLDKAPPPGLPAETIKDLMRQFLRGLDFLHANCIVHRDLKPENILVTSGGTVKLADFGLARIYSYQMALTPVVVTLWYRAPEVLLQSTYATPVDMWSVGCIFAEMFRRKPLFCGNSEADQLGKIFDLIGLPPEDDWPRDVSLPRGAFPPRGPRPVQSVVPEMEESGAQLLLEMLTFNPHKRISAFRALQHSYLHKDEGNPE

One may read the Kd as the equilibrium constant for the complex coming apart. For `CCc1nc(C(N)=O)c(Nc2ccc(N3CCC(N4CCN(C)CC4)CC3)c(OC)c2)nc1NC1CCOCC1` [GILTERITINIB], the Kd in [1] was 0.207 µM (active); in [2] it was > 30 µM (inactive); in assay [3], > 30 µM (inactive); on Activated CDC42 kinase 1, 3.15 µM (active); at Wee1-like protein kinase, > 30 µM (inactive); in [4], 1.95 µM (active). Besides, the Kd in assay [5] is > 30 µM (inactive).
Turning to `C=CCn1c(=O)c2cnc(Nc3ccc(N4CCN(C)CC4)cc3)nc2n1-c1cccc(C(C)(C)O)n1` [ADAVOSERTIB], the Kd in assay [1], in assay [6], in assay [2], in [3], in assay [7] and in assay [4] was > 30 µM (inactive) each time. Further, the Kd in [5] was > 30 µM (inactive).
Regarding `CC1(C)CNc2cc(NC(=O)c3cccnc3NCc3ccncc3)ccc21` [MOTESANIB], the Kd in assay [3] and in assay [5] was > 30 µM (inactive) each time.
Consider `COc1cc2c(N3CCN(C(=O)Nc4ccc(OC(C)C)cc4)CC3)ncnc2cc1OCCCN1CCCCC1` [TANDUTINIB], for which the Kd is 0.006 µM in assay [3] and > 30 µM (inactive) in [5].
With `O=S(=O)(c1cccc2cnccc12)N1CCCNCC1` [FASUDIL], the Kd (in [1]; in [6]; in [2]; in assay [3]; in [7]; at Wee1-like protein kinase) was > 30 µM (inactive) each time. For the same compound, the Kd in [4] and in assay [5] was > 30 µM (inactive) in each case.
`CNC(=O)c1ccc(Nc2ncc(C(F)(F)F)c(NCc3nccnc3N(C)S(C)(=O)=O)n2)cc1` [DEFACTINIB]: the Kd (in assay [1]; in assay [6]; in [2]; in assay [3]; at Activated CDC42 kinase 1; in assay [7]) was > 30 µM (inactive) each time. Besides, the Kd in [4] and in [5] was > 30 µM (inactive) each time.
`Cc1cc(C(=O)Nc2cc(Oc3ccc4nc(NC(=O)C5CC5)cn4n3)ccc2C)n(C)n1` [TAK-593]: the Kd in assay [1] is > 30 µM (inactive); in [2], 14.7 µM (active); in [3], > 30 µM (inactive); on Activated CDC42 kinase 1, > 30 µM (inactive); in [7], > 30 µM (inactive); at Wee1-like protein kinase it was > 30 µM (inactive). Besides, the Kd in assay [4] and in assay [5] was > 30 µM (inactive) throughout.
Consider `CCN(CCCOc1ccc2c(Nc3cc(CC(=O)Nc4cccc(F)c4)n[nH]3)ncnc2c1)CCOP(=O)(O)O` [BARASERTIB], for which the Kd (in [1]; in [6]; in assay [2]; in assay [3]; in assay [7]; on Wee1-like protein kinase) was > 30 µM (inactive) throughout. In addition, the Kd in [4] and in assay [5] was > 30 µM (inactive) throughout.
Take `N#CCNC(=O)c1ccc(-c2ccnc(Nc3ccc(N4CCOCC4)cc3)n2)cc1` [MOMELOTINIB]: the Kd (in assay [6]; in [2]; in assay [3]; on Activated CDC42 kinase 1; in [4]; in assay [5]) was > 30 µM (inactive) each time.
Consider `CN(C)C/C=C/C(=O)Nc1cc2c(Nc3ccc(F)c(Cl)c3)ncnc2cc1O[C@H]1CCOC1` [AFATINIB], for which the Kd in [3] and in assay [5] was > 30 µM (inactive) in each case.
`O=S(=O)(c1cccc2c(O)nccc12)N1CCCNCC1` [HYDROXYFASUDIL]: the Kd (in assay [1]; in assay [6]; in [2]; in assay [3]; on Activated CDC42 kinase 1; in assay [7]) was > 30 µM (inactive) in each case. Also, the Kd was > 30 µM (inactive) in assay [4] and 3.96 µM (active) in [5].
As for `Cn1cnc2c(F)c(Nc3ccc(Br)cc3Cl)c(C(=O)NOCCO)cc21` [SELUMETINIB], the Kd in assay [3] and in assay [5] was > 30 µM (inactive) in each case.
For `CC(C)(O)CC(=O)NCCn1ccc2ncnc(Nc3ccc(Oc4cccc(C(F)(F)F)c4)c(Cl)c3)c21` [TAK-285], the Kd (in assay [1]; in assay [2]; in assay [3]; at Activated CDC42 kinase 1; in assay [7]; on Wee1-like protein kinase) was > 30 µM (inactive) throughout. Also, the Kd in assay [4] was > 30 µM (inactive).
`Cn1c(=O)n(-c2ccc(C(C)(C)C#N)cc2)c2c3cc(-c4cnc5ccccc5c4)ccc3ncc21` [DACTOLISIB]: the Kd (in assay [1]; in assay [6]; in assay [2]; in [3]; in assay [7]; on Wee1-like protein kinase) was > 30 µM (inactive) in each case. The Kd in assay [4] and in [5] was > 30 µM (inactive) throughout.
`COc1cc2c(Oc3ccc4[nH]c(C)cc4c3F)ncnc2cc1OCCCN1CCCC1` [CEDIRANIB]: the Kd in [3] and in [5] was > 30 µM (inactive) in each case.
In the case of `CN(c1ncccc1CNc1nc(Nc2ccc3c(c2)CC(=O)N3)ncc1C(F)(F)F)S(C)(=O)=O` [PF-00562271], the Kd (in assay [6]; in assay [2]; in [3]; in [7]; on Wee1-like protein kinase; in assay [4]) was > 30 µM (inactive) in each case. In [5], the Kd was > 30 µM (inactive).
For the compound `C[C@@]1(C(=O)Nc2ccc(F)nc2)CCCN1c1nc(Nc2cc(C3CC3)n[nH]2)c2cccn2n1` [BMS-754807], the Kd in [3] and in [5] was > 30 µM (inactive) in each case.
